Test results taken from patent publication US8952024B2, “Herbicidal pyrimidone derivatives” (E I du Pont de Nemours and Company, priority 2009, dated 2015).

Legend:
Assay in all cases: Test A pre-/postemergence plant response
Type in all cases: in vivo
[1] = test system: velvetleaf (Abutilon theophrasti); conditions: for Velvetleaf plant response rating: visual injury, 0 to 100 scale (0 no effect, 100 complete control)
Text: (§1) Seeds of barnyardgrass (Echinochloa crus-galli), large crabgrass (Digitaria sanguinalis), giant foxtail (Setaria faberii), morningglory (Ipomoea spp.), pigweed (Amaranthus retroflexus), velvetleaf (Abutilon theophrasti), wheat (Triticum aestivum) and corn (Zea mays) were planted into a blend of loam soil and sand and treated preemergence with a directed soil spray using test chemicals formulated in a non-phytotoxic solvent mixture which included a surfactant. At the same time these species were also treated with postemergence applications of test compounds formulated in the same manner.
(§2) Plants ranged in height from two to ten cm and were in the one- to two-leaf stage for the postemergence treatment. Treated plants and untreated controls were maintained in a greenhouse for approximately ten days, after which time all treated plants were compared to untreated controls and visually evaluated for injury. Plant response ratings, summarized in Table A, are based on a 0 to 100 scale where 0 is no effect and 100 is complete control. A dash (-) response means no test result.

[2] = test system: barnyardgrass (Echinochloa crus-galli)
Text: as §1, §2

[3] = test system: giant foxtail (Setaria faberii)
Text: as §1, §2

[4] = test system: corn (Zea mays)
Text: as §1, §2

[5] = test system: morningglory (Ipomoea spp.)
Text: as §1, §2

[6] = test system: pigweed (Amaranthus retroflexus)
Text: as §1, §2

[7] = test system: large crabgrass (Digitaria sanguinalis)
Text: as §1, §2

[8] = test system: wheat (Triticum aestivum); conditions: for Wheat plant response rating: visual injury, 0 to 100 scale (0 no effect, 100 complete control)
Text: as §1, §2

[9] = Postemergence, 125 g ai/ha, 0 to 100 scale where 0 is no effect and 100 is complete control
[10] = Postemergence, 500 g ai/ha, 0 to 100 scale, 0 = no effect, 100 = complete control, approx. ten days
[11] = Preemergence, 125 g ai/ha, 0 to 100 scale, 0 = no effect, 100 = complete control
[12] = Preemergence, 500 g ai/ha, 0 to 100 scale, 0 = no effect, 100 = complete control
[13] = Preemergence, 500 g ai/ha, visual injury, 0 to 100 scale (0 no effect, 100 complete control), approx. ten days
[14] = Postemergence, 500 g ai/ha, approx. ten days
[15] = Postemergence, 500 g ai/ha, visual injury, 0 to 100 scale (0 no effect, 100 complete control), approx. ten days

Row | Compound | Plant response rating, Velvetleaf [1, 9] | Plant response rating, Velvetleaf [1, 11] | Plant response rating, Velvetleaf [1, 12] | Plant response rating, Barnyardgrass [2, 9] | Plant response rating, Barnyardgrass [2, 11] | Plant response rating, Foxtail, Giant [3, 9] | Plant response rating, Foxtail, Giant [3, 11] | Plant response rating, Corn [4, 9] | Plant response rating, Corn [4, 11] | Plant response rating, Morningglory [5, 9] | Plant response rating, Morningglory [5, 11] | Plant response rating, Pigweed [6, 9] | Plant response rating, Pigweed [6, 11] | Plant response rating, Crabgrass, Large [7, 9] | Plant response rating, Crabgrass, Large [7, 11] | Plant response rating, Wheat [8, 9] | Plant response rating, Wheat [8, 11] | Plant response rating, Wheat [8, 12] | Velvetleaf plant response rating [1, 14] | Barnyardgrass plant response rating [2, 15] | further results
1 | CCCn1c(-c2ccc3c(c2)OCCO3)ncc(C(=O)C2=C(O)CCCC2=O)c1=O [Compound 149] | 100 | 40 | 70 | 70 | 20 | 60 | 10 | 0 | 0 | 100 | 0 | 70 | 80 | 40 | 30 | 20 | 0 | 20 |  |  | Plant response rating, Velvetleaf [1, 10]: 100; Plant response rating, Barnyardgrass [2, 10]: 90; Plant response rating, Barnyardgrass [2, 13]: 50; Plant response rating, Foxtail, Giant [3, 10]: 80; Plant response rating, Foxtail, Giant [3, 13]: 60; Plant response rating, Corn [4, 10]: 30; Plant response rating, Corn [4, 13]: 20; Plant response rating, Morningglory [5, 10]: 100; Plant response rating, Morningglory [5, 13]: 40; Plant response rating, Pigweed [6, 10]: 100; Plant response rating, Pigweed [6, 13]: 100; Plant response rating, Crabgrass, Large [7, 10]: 70; Plant response rating, Crabgrass, Large [7, 13]: 80; Plant response rating, Wheat [8, 10]: 50
2 | CCCn1c(-c2ccc3ccccc3c2)ncc(C(=O)C2=C(O)CCCC2=O)c1=O [Compound 150] | 50 | 0 | 0 | 40 | 0 | 40 | 0 | 0 | 0 | 100 | 0 | 30 | 0 | 20 | 0 | 0 | 0 | 0 |  |  | Plant response rating, Velvetleaf [1, 10]: 90; Plant response rating, Barnyardgrass [2, 10]: 80; Plant response rating, Barnyardgrass [2, 13]: 0; Plant response rating, Foxtail, Giant [3, 10]: 70; Plant response rating, Foxtail, Giant [3, 13]: 0; Plant response rating, Corn [4, 10]: 0; Plant response rating, Corn [4, 13]: 0; Plant response rating, Morningglory [5, 10]: 100; Plant response rating, Morningglory [5, 13]: 0; Plant response rating, Pigweed [6, 10]: 60; Plant response rating, Pigweed [6, 13]: 0; Plant response rating, Crabgrass, Large [7, 10]: 50; Plant response rating, Crabgrass, Large [7, 13]: 10; Plant response rating, Wheat [8, 10]: 20
3 | O=C1CCCC(O)=C1C(=O)c1cnc(-c2ccccc2)n(C2CCCCCCCCCCC2)c1=O [Compound 165] | 100 | 0 | 0 | 0 | 0 | 20 | 0 | 0 | 0 | 50 |  | 80 | 0 | 20 | 0 | 0 | 0 | 0 | 100 | 80 | Plant response rating, Barnyardgrass [2, 12]: 0; Foxtail, Giant plant response rating [3, 15]: 30; Plant response rating, Foxtail, Giant [3, 12]: 0; Corn plant response rating [4, 15]: 30; Plant response rating, Corn [4, 12]: 0; Morningglory plant response rating [5, 15]: 100; Plant response rating, Morningglory [5, 12]: 0; Pigweed plant response rating [6, 15]: 100; Plant response rating, Pigweed [6, 12]: 0; Crabgrass, Large plant response rating [7, 15]: 50; Plant response rating, Crabgrass, Large [7, 12]: 0; Wheat plant response rating [8, 14]: 0
4 | Cc1ccc(-n2c(-c3cccc(F)c3)ncc(C(=O)C3=C(O)CCCC3=O)c2=O)cc1 [Compound 202] | 100 | 70 | 100 | 90 | 20 | 80 | 50 | 10 | 20 | 100 | 0 | 100 | 90 | 70 | 50 | 20 | 0 | 40 | 100 | 100 | Plant response rating, Barnyardgrass [2, 12]: 100; Foxtail, Giant plant response rating [3, 15]: 100; Plant response rating, Foxtail, Giant [3, 12]: 100; Corn plant response rating [4, 15]: 30; Plant response rating, Corn [4, 12]: 40; Morningglory plant response rating [5, 15]: 100; Plant response rating, Morningglory [5, 12]: 100; Pigweed plant response rating [6, 15]: 100; Plant response rating, Pigweed [6, 12]: 100; Crabgrass, Large plant response rating [7, 15]: 100; Plant response rating, Crabgrass, Large [7, 12]: 100; Wheat plant response rating [8, 14]: 50
5 | O=C1CCCC(O)=C1C(=O)c1cnc(-c2cc(F)c(F)c(F)c2)n(C2CCCCC2)c1=O [Compound 205] | 100 | 10 | 80 | 90 | 0 | 40 | 10 | 0 | 0 | 100 | 0 | 90 | 10 | 60 | 20 | 0 | 0 | 0 | 100 | 100 | Plant response rating, Barnyardgrass [2, 12]: 10; Foxtail, Giant plant response rating [3, 15]: 90; Plant response rating, Foxtail, Giant [3, 12]: 80; Corn plant response rating [4, 15]: 20; Plant response rating, Corn [4, 12]: 0; Morningglory plant response rating [5, 15]: 100; Plant response rating, Morningglory [5, 12]: 60; Pigweed plant response rating [6, 15]: 100; Plant response rating, Pigweed [6, 12]: 90; Crabgrass, Large plant response rating [7, 15]: 90; Plant response rating, Crabgrass, Large [7, 12]: 90; Wheat plant response rating [8, 14]: 10
